The record followed here is patent publication US9101137B2 (priority 2011, dated 2015).

Type in all cases: in vivo, Magnaporthe grisea
The test system of assay [1] is rice blast disease. Particulars: application concentration 50 ppm; rice (Nanatsuboshi), spray; lesion area after 6 days.
Assay [2] concerns rice blast disease. The following applies: application concentration 10 ppm; rice (Nanatsuboshi), spray; lesion area after 6 days; average of duplicate.
The test system of assay [3] is rice blast disease. Particulars: application concentration 20 ppm; rice (Nanatsuboshi), spray; lesion area after 5 days.

Read-outs that look alike come from different tables or passages of the source.

In the case of `COC(=O)NCc1cc(/C(C)=N/OCc2cccc(C)n2)ccc1Cl` [Pyribencarb, pyribencarb], the Control value in the assay with rice blast disease [1] was 86.0; in the assay on rice blast disease [2], 18.8; with rice blast disease [3] it was 40.0.
